Assay results from US12037324B2, “Biarylmethyl heterocycles” (Université de Montréal, priority 2016, dated 2024).

Experiments:
Format in all cases: cell-based
AGTR1 = molecular target: T1, AGTR1 (Homo sapiens, UniProt P30556); assay: DiscoveRx β-arrestin2 recruitment assay (enzyme complementation, Pathunter CHO-K1 AGTR1 β-arrestin cell line); settings: DiscoveRx β-arrestin2 recruitment; for DiscoveRx β-arrestin2 Ymax (%): maximal response
T1 construct: host or cells: Pathunter CHO-K1 AGTR1 β-arrestin cell line (CHO-K1)
T1 sequence (P30556 1-359): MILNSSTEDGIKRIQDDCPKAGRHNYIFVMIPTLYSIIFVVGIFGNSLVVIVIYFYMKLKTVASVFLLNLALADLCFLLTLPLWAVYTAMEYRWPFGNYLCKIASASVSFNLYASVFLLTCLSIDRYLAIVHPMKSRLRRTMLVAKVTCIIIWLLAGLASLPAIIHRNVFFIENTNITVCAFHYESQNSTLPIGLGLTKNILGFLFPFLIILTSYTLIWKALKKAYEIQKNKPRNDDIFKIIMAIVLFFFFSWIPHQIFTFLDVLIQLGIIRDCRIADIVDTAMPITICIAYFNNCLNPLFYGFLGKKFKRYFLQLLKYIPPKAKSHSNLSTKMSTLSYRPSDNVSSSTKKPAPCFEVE
Method in brief: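 Chemiluminescent enzyme-complementation read-out of β-arrestin2 recruitment to AGTR1 in engineered CHO-K1 cells after 90 min compound exposure at 37° C. Values are 4-parameter logistic EC50s in agonist mode, IC50s in antagonist mode, with efficacy relative to the maximal All response.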

hAT1R [1] = molecular target: T2, hAT1R (Homo sapiens, UniProt P30556); assay: BRET Gq biosensor assay, agonist response, HEK293 cells; settings: section of the 42nd table directly before the BRET P63 section
T2 sequence (P30556 1-359): T1 sequence (P30556 1-359)
Method in brief: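 Agonist EC50 derived from a 4-parameter fit of BRET2 ratio (GFP 515 nm/Rluc 410 nm), scaled between unstimulated control and maximal AngII response. Readings taken 5 min after compound addition at room temperature, with 2 μM coelenterazine, in HEK293 cells expressing hAT1R, Gαq-Rluc, Gβ1 and GFP-Gγ1 (transfected two days earlier).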

hAT1R [2] = molecular target: T2, hAT1R; assay: BRET β-arrestin2 biosensor assay, higher receptor expression (hAT1R 5 ng/well), HEK293 cells; settings: for EC50: High AT1R Expression

| Structure (SMILES) | EC50 (AGTR1) | DiscoveRx β-arrestin2 Ymax (%) (AGTR1) | EC50 (hAT1R [1]) | BRET β-Arrestin2 High AT1R Expression Ymax (%) (hAT1R [2]) | EC50 (hAT1R [2]) |
| --- | --- | --- | --- | --- | --- |
| CCCCc1ncc(C(=O)Nc2ccncc2)n1Cc1ccc(-c2cc(-c3ccccc3)ccc2-c2nn[nH]n2)cc1 [Example 353] | 55 nM | 22.4% | 566 nM | 49.1% | 65.5 nM |
| CCCCc1ncc(C(=O)NC2CCCCC2)n1Cc1ccc(-c2cc(-c3ccccc3)ccc2-c2nn[nH]n2)cc1 [Example 354] | 59.9 nM | 48.3% | 45.5 nM | 99.5% | 19.3 nM |
| CCCCc1ncc(C(=O)NCc2cccnn2)n1Cc1ccc(-c2cc(-c3ccccc3)ccc2-c2nn[nH]n2)cc1 [Example 355] | 8.6 nM | 42.4% | > 1000 nM | 92.5% | 23.3 nM |
| CCCCc1ncc(C(=O)NCc2nccs2)n1Cc1ccc(-c2cc(-c3ccccc3)ccc2-c2nn[nH]n2)cc1 [Example 356] | 27.3 nM | 41.5% | 36.7 nM | 84.7% | 17.7 nM |
| CCCCc1ncc(C(=O)NCCC2CC2)n1Cc1ccc(-c2cc(-c3ccccc3)ccc2-c2nn[nH]n2)cc1 [Example 357] | 19.6 nM | 41.8% | 46.3 nM | 72.5% | 23.4 nM |
| CCCCc1ncc(C(=O)NC2COC2)n1Cc1ccc(-c2cc(-c3ccccc3)ccc2-c2nn[nH]n2)cc1 [Example 358] | 10.1 nM | 40.2% | 44.7 nM | 88.8% | 21.4 nM |
| CCCCc1ncc(C(=O)NCc2cnccn2)n1Cc1ccc(-c2cc(-c3ccccc3)ccc2-c2nn[nH]n2)cc1 [Example 359] | 17.4 nM | 43.5% | 39.4 nM | 90.8% | 15.3 nM |
| CCCCc1ncc(C(=O)NCC(C)(C)COC)n1Cc1ccc(-c2cc(-c3ccccc3)ccc2-c2nn[nH]n2)cc1 [Example 360] | 29.2 nM | 37.2% | > 100000 nM | 75.0% | 35.1 nM |
| CCCCc1ncc(C(=O)NC(C)(C)COC)n1Cc1ccc(-c2cc(-c3ccccc3)ccc2-c2nn[nH]n2)cc1 [Example 361] | 97.8 nM | 29.3% | 296 nM | 61.3% | 128 nM |
| CCCCc1ncc(C(=O)NC2CCCCCC2)n1Cc1ccc(-c2cc(-c3ccccc3)ccc2-c2nn[nH]n2)cc1 [Example 362] | 123 nM | 49.8% | 34.2 nM | 97.0% | 26.4 nM |
| CCCCc1ncc(C(=O)NCc2cc(C(C)C)no2)n1Cc1ccc(-c2cc(-c3ccccc3)ccc2-c2nn[nH]n2)cc1 [Example 363] | 10.7 nM | 46.2% | 59.6 nM | 100.4% | 23.8 nM |
| CCCCc1ncc(C(=O)NCC(F)F)n1Cc1ccc(-c2cc(-c3ccccc3)ccc2-c2nn[nH]n2)cc1 [Example 364] | 23.2 nM | 30.3% | 119 nM | 79.4% | 50.5 nM |
| CCCCc1ncc(C(=O)NCC2CC2)n1Cc1ccc(-c2cc(-c3ccccc3)ccc2-c2nn[nH]n2)cc1 [Example 365] | 46.2 nM | 39.7% | 40.8 nM | 82.7% | 35.9 nM |
| CCCCc1ncc(C(=O)NCCC(C)C)n1Cc1ccc(-c2cc(-c3ccccc3)ccc2-c2nn[nH]n2)cc1 [Example 366] | 11.1 nM | 37.0% | 42.9 nM | 78.7% | 27.4 nM |
| CCCCc1ncc(C(=O)NCCOC(C)C)n1Cc1ccc(-c2cc(-c3ccccc3)ccc2-c2nn[nH]n2)cc1 [Example 367] | 5.7 nM | 35.9% | 59.1 nM | 63.3% | 17.6 nM |
| CCCCc1ncc(C(=O)NCC(C)C)n1Cc1ccc(-c2cc(-c3ccccc3)ccc2-c2nn[nH]n2)cc1 [Example 368] | 59.8 nM | 39.1% | 96.1 nM | 82.6% | 32.5 nM |
| CCCCc1ncc(C(=O)N[C@@H](CC)C2CC2)n1Cc1ccc(-c2cc(-c3ccccc3)ccc2-c2nn[nH]n2)cc1 [Example 369] | 174 nM | 30.9% | 173 nM | 73.8% | 73.3 nM |
| CCCCc1ncc(C(=O)N2CCC2)n1Cc1ccc(-c2cc(-c3ccccc3)ccc2-c2nn[nH]n2)cc1 [Example 370] | 16.3 nM | 26.8% | 71.9 nM | 85.5% | 45.3 nM |
| CCCCc1ncc(C(=O)NCc2ccccn2)n1Cc1ccc(-c2cc(-c3ccccc3)ccc2-c2nn[nH]n2)cc1 [Example 371] | 5.7 nM | 40.8% | > 1000 nM | 94.4% | 11 nM |
| CCCCc1ncc(C(=O)NCCC)n1Cc1ccc(-c2cc(-c3ccccc3)ccc2-c2nn[nH]n2)cc1 [Example 372] | 58.8 nM | 41.7% | 73.8 nM | 78.9% | 44.8 nM |
| CCCCc1ncc(C(=O)NCC(C)(C)C)n1Cc1ccc(-c2cc(-c3ccccc3)ccc2-c2nn[nH]n2)cc1 [Example 373] | 14.2 nM | 29.5% | 734 nM | 71.4% | 38.5 nM |
| CCCCc1ncc(C(=O)NCCOC)n1Cc1ccc(-c2cc(-c3ccccc3)ccc2-c2nn[nH]n2)cc1 [Example 374] | 10.5 nM | 44.3% | 16.2 nM | 94.4% | 13.4 nM |
| CCCCc1ncc(C(=O)Nc2ccncc2C)n1Cc1ccc(-c2cc(-c3ccccc3)ccc2-c2nn[nH]n2)cc1 [Example 375] | 89.7 nM | 35.8% | 273 nM | 55.7% | 89.4 nM |
| CCCCc1ncc(C(=O)Nc2ccc(C)nn2)n1Cc1ccc(-c2cc(-c3ccccc3)ccc2-c2nn[nH]n2)cc1 [Example 376] | 18.5 nM | 22.1% | 123 nM | 44.2% | 45.5 nM |
| CCCCc1ncc(C(=O)NC2CCCC2)n1Cc1ccc(-c2cc(-c3ccccc3)ccc2-c2nn[nH]n2)cc1 [Example 377] | 49.5 nM | 39.0% | 146 nM | 80.9% | 25.4 nM |
| CCCCc1ncc(C(=O)N2CCCCC2)n1Cc1ccc(-c2cc(-c3ccccc3)ccc2-c2nn[nH]n2)cc1 [Example 378] | 107 nM | 15.7% | 688 nM | 26.3% | 238 nM |
| CCCCc1ncc(C(=O)NCC)n1Cc1ccc(-c2cc(-c3ccccc3)ccc2-c2nn[nH]n2)cc1 [Example 379] | 21.2 nM | 30.2% | 106 nM | 72.7% | 56.3 nM |
| CCCCc1ncc(C(=O)NC2CCC2)n1Cc1ccc(-c2cc(-c3ccccc3)ccc2-c2nn[nH]n2)cc1 [Example 380] | 59.2 nM | 43.1% | 104 nM | 76.0% | 35 nM |
| CCCCc1nc(Cl)c(C(=O)N(C)C)n1Cc1ccc(-c2cc(-c3ccccc3)ccc2-c2nn[nH]n2)cc1 [Example 381, 1-((6′-(2H-tetrazol-5-yl)-[1,1′:3′,1″-terphenyl]-4-yl)methyl)-2-butyl-4-chloro-N,N-dimethyl-1H-imidazole-5-carboxamide] | 344 nM | 37.4% | 2110 nM | 73.9% | 828 nM |
| CCCCc1ncc(C(=O)NC)n1Cc1ccc(-c2cc(-c3ccccc3)ccc2-c2nn[nH]n2)cc1 [Example 382] | 13.2 nM | 27.6% | > 100000 nM | 67.5% | 47.1 nM |
